Reference: paper PMC4603303, “Activity of Novel Synthetic Peptides against Candida albicans” (Scientific Reports, 2015)
In brackets after ≈: the same amount, converted by molar mass.

Assays:
[1] = system: Candida albicans ATCC 90028; test: MIC, broth microdilution (CLSI M27-A2); format: cell-based; conditions: Candida albicans, ATCC90028; C. albicans ATCC 90028; RPMI 1640-MOPS, 48 h, 37°C; lowest concentration inhibiting 90% growth; three times in duplicate; read-out: Minimum Inhibitory Concentration (MIC)
Method: (§1) C. albicans strains SC5314 and ATCC 90028, C. krusei ATCC 6258 and C. parapsilosis ATCC 22019 were used in the study. The strains were stored at −80°C in nutrient broth supplemented with 2.0% glycerol stock. Prior to experimentation, each strain was streaked for single colonies on Sabouraud Dextrose (SDA) agar plates and incubated overnight at 37°C.
(§2) Antifungal activity of the designed peptides was determined according to a standardized broth microdilution method (Clinical and Laboratory Standards Institute (CLSI) document M27-A2). Briefly, the yeast colonies from 24- hour-old cultures of Candida species were picked and resuspended in 5 mL of sterile 0.145 mol/L saline and adjusted to cell density of 1 × 10^6 to 5 × 10^6 cells/ml. The yeast stock suspension was then diluted to obtain a starting inoculum of 5.0 × 10^2 to 2.5 × 10^3 cells/ml. […] The drugs were dissolved in DMSO and prepared to a stock concentration of 25 mg/L and 50 mg/L, respectively. […] 100 μL of standardized yeast suspension was then added to each well. Plates were incubated for 48 hours at 37°C. The minimum inhibitory concentration (MIC) was defined as the lowest concentration that inhibited 90% growth of Candida species. The MICs were determined three times and each time in duplicate.

[2] = system: Candida krusei ATCC 6258; test: MIC, broth microdilution (CLSI M27-A2); format: cell-based; conditions: Pichia kudriavzevii, ATCC6258; C. krusei ATCC 6258; RPMI 1640-MOPS, 48 h, 37°C; lowest concentration inhibiting 90% growth; three times in duplicate; read-out: Minimum Inhibitory Concentration (MIC)
Method: as §1, §2

[3] = system: Candida albicans SC 5314; test: MIC, broth microdilution (CLSI M27-A2); format: cell-based; conditions: Candida albicans, SC5314; C. albicans SC 5314; RPMI 1640-MOPS, 48 h, 37°C; lowest concentration inhibiting 90% growth; three times in duplicate; read-out: Minimum Inhibitory Concentration (MIC)
Method: as §1, §2

[4] = system: Candida parapsilosis ATCC 22019; test: MIC, broth microdilution (CLSI M27-A2); format: cell-based; conditions: Lodderomyces parapsilosis, ATCC22019; C. parapsilosis ATCC 22019; RPMI 1640-MOPS, 48 h, 37°C; lowest concentration inhibiting 90% growth; three times in duplicate; read-out: Minimum Inhibitory Concentration (MIC)
Method: as §1, §2

[5] = system: C. albicans SC5314 biofilms; test: Biofilm reduction assay (XTT); format: cell-based, Candida albicans; conditions: minimum concentration giving 50% reduction of viability of 24 h-old biofilm, 24 h treatment, 1-4× MIC tested
Method: Biofilms of C. albicans were formed on commercially available pre-sterilized, polystyrene, flat bottomed 96 well microtitre plates as described by Jin et al with modification. Firstly, a standardized yeast suspension (10^7 cells/ml) of C. albicans SC5314 was prepared by suspending colonies from 24-hours old culture in RPMI 1640 medium and adjusted to an optical density of 0.38–0.39 at 520 nm. 100 μL of yeast suspension was dispensed into each well of a microtitre plate using a multichannel pipette and the plates were incubated in a shaking incubator at 37°C with 75 rpm for 90 minutes to allow adherence of yeast on the surface of each well. After the adhesion phase, the non-adherent cells were removed and each well was washed twice with 150 μL PBS. 100 μL of RPMI 1640 medium was transferred to each washed well and the plates were incubated at 37°C in a shaking incubator at 75 rpm for 24 hours to allow biofilm formation. Following biofilm phase, the medium was aspirated and each well was washed twice gently with 200 μL PBS to remove non-adherent cells. Residual PBS was removed by inverting the plates over an absorbent paper before addition of peptides. […] Antifungal agent-free wells and biofilm-free wells were included as positive and negative controls. After treatment with peptides, the medium was removed and each well was washed twice with 200 μL PBS. The biofilm formation was quantified by using XTT reduction assay as described below. Each experiment was repeated three times in duplicate.
XTT reduction assay was performed according to the method adapted from Jin et al.[44] Briefly, XTT (Sigma) was dissolved to a concentration of 1 mg/ml using sterile PBS. XTT solution was then filter-sterilized using a 0.22 μm-pore-size filter and kept at −70°C prior to use. 0.4 mM menadione solution was prepared by dissolving menadione (Sigma) with acetone. The menadione solution was filter-sterilized and kept at −70°C before use. Prior to each assay, XTT solution was thawed and mixed with menadione solution at a volume ratio of 20:1. After washing, a total volume of 200 μL of XTT-menadione mixture (158 μL of PBS, 40 μL of XTT and 2 μL of menadione) was added to each prewashed biofilm and control wells. The plates were incubated in the dark for 2 hours at 37°C. 100 μL of the solution was transferred to new wells and the colorimetric change in the solution was measured using a microtiter plate reader at 490 nm. Antibiofilm activity of the peptides and conventional antifungals was expressed as the biofilm-eradicating concentration 2 (BEC-2), which is defined as the minimum concentration of the peptides resulting in 50% reduction of the biofilm viability compared to the growth control.

[6] = system: C. albicans SC5314; test: Time killing assay; format: cell-based, Candida albicans; conditions: 2× MIC
Method: A fungal suspension was adjusted to a 0.5 McFarland turbidity standard with cell density of 1 × 10^6 to 5 × 10^6 cells/ml. 100 μL of adjusted yeast suspension was exposed to 900 μL of RPMI medium containing peptide, yielding a starting inoculum of approximately 10^5 cells/ml. The solutions were incubated at 37°C with agitation. At the predetermined time interval of 0, 1, 2, 4 and 6 hours, 10 μL or 30 μL of the samples were removed, serially diluted with phosphate-buffered saline (PBS) and plated on SDA plates to allow colony counts after 24 hours of incubation. Controls for yeast growth and antifungal agents were also performed. The lower limit of accurate and reproducible quantitation was 100 CFU/ml. Results were obtained from three independent experiments.

[7] = system: Candida strains; test: MIC, broth microdilution, range stated over several Candida strains; format: cell-based, Candida spp.
Method: as §1, §2

[8] = system: VK2/E6E7 cell line; test: cells; conditions: Homo sapiens
Method: (§3) The human normal vaginal epithelial cell line VK2/E6E7 (ATCC® CRL-2616™) and human normal esophagus epithelial cell line Het-1A (ATCC® CRL-2692™) were used for cytotoxicity testing. VK2/E6E7 cell line was grown in Keratinocyte-Serum Free medium (GIBCO-BRL 17005-042) supplemented with 0.1 ng/ml human recombinant EGF, 0.05 mg/ml bovine pituitary extract, and 44.1 mg/L calcium chloride. […] Cell viability was measured by using CellTiter 96® Aqueous Non-Radioactive Cell Proliferation Assay (Promega, USA) and the colourimetric changes were determined at 490 nm using a microplate reader. […] Results were recorded by averaging three repeated experiments and each experiment was performed in duplicate.

[9] = system: Het-1A cell line; test: cells; conditions: Homo sapiens, HET-1A
Method: as §3

SMILES	MIC [1] [µg/mL]	MIC [2] [µg/mL]	MIC [3] [µg/mL]	MIC [4] [µg/mL]	BEC-2 values [5] [mg/L]	BEC-2 values ([5]; listed as fluconazole) [mg/L]	reduction in yeast growth [6] [%]	MIC values, range ([7]; range for two C. albicans strains and C. parapsilosis) [µg/mL]	BEC-2 values ([5]; listed as amphotericin B) [mg/L]	IC50 ([8]; 24 h) [µg/mL]	IC50 ([8]; 48 h) [µg/mL]	IC50 ([8]; 72 h) [µg/mL]	IC50 ([9]; 24 h) [µg/mL]	IC50 ([9]; 48 h) [µg/mL]	IC50 ([9]; 72 h) [µg/mL]	% killing ([6]; within 2 hours) [%]	mean log reduction in viable cells ([6]; within 2 hours, RPMI, 37°C, mean ± SD of three experiments) [log CFU/mL]	MIC values, range ([7]; range against four Candida strains (C. albicans and non-albicans species)) [µg/mL]
OC(Cn1cncn1)(Cn1cncn1)c1ccc(F)cc1F [Fluconazole, reference compound]	2 (≈ 6.53 µM)	64 (≈ 209 µM)	1 (≈ 3.27 µM)	1 (≈ 3.27 µM)	>4	> 4	> 99.9	1 to 2	–	–	–	–	–	–	–	–	–	–
C[C@@H]1[C@H](O)[C@@H](C)/C=C/C=C/C=C/C=C/C=C/C=C/C=C/[C@H](O[C@@H]2O[C@H](C)[C@@H](O)[C@H](N)[C@@H]2O)C[C@@H]2O[C@](O)(C[C@@H](O)C[C@@H](O)[C@H](O)CC[C@@H](O)C[C@@H](O)CC(=O)O[C@H]1C)C[C@H](O)[C@H]2C(=O)O [Amphotericin B, reference compound]	0.5 (≈ 0.541 µM)	1 (≈ 1.08 µM)	1 (≈ 1.08 µM)	1 (≈ 1.08 µM)	<1	–	–	–	> 1	8.13 ± 4.54 (≈ 8.8 µM)	7.64 ± 2.95 (≈ 8.27 µM)	15.3 ± 3.72 (≈ 16.6 µM)	9.91 ± 3.35 (≈ 10.7 µM)	7.78 ± 1.7 (≈ 8.42 µM)	9.1 ± 0.98 (≈ 9.85 µM)	> 99.99	5.44 ± 0.07	0.5 to 1
